Molecular target: recombinant Mcl-1 (residues 172-327) (Homo sapiens (Human), UniProt Q07820)
Experiment: Bak peptide binding assay, fluorescence polarization anisotropy competition (FITC-Bak), Mcl-1;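 also: displacement of labeled Bak peptide read by fluorescence anisotropy, 10-point threefold dilutions from 20 µM top dose in 5% DMSO, 90 min incubation at room temperature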
Settings: Table 3, binned ranges; FITC-Bak peptide 10 nM, Mcl-1 14 nM; read-out: Ki for inhibition of Mcl-1
Description: Bak Peptide Binding Assay
Compound affinity was measured using a fluorescence polarization anisotropy competition assay. Anisotropy measurements were carried out in 384-well, black, flat-bottom plates (Greiner Bio-one, Monroe, N.C., USA). […] 10 nM FITC-Bak peptide and 14 nM recombinant Mcl-1 (residues 172-327) were added to assay buffer (3 mM dithiothreitol, 50 mM NaCl, 20 mM Tris, pH 7.5).
Compounds are diluted in DMSO in a 10-point, 3-fold serial dilution scheme. 2.5 uL compound is added to 47.5 uL of assay buffer containing FITC-Bak and protein, for a final DMSO concentration of 5% and a top concentration of 20 uM. […] The plate was mixed and incubated for 90 minutes at room temperature. Anisotropy is measured at excitation wavelength 480 nm and emission wavelength 535 nm using an EnVision Multi-label plate reader (PerkinElmer, Wellesley, Mass., USA).

Sequence of recombinant Mcl-1 (residues 172-327) (Q07820 172-327): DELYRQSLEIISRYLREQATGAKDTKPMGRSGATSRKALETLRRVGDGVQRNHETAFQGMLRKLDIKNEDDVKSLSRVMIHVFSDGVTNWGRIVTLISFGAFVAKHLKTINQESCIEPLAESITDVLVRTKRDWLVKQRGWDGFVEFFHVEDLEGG

Ki	SMILES
≤ 0.1 µM	Cc1cc(OCCCc2c(C)n(Cc3cccc(C(=O)NS(=O)(=O)c4ccccn4)c3)c3c(-c4c(C)nn(C)c4C)cccc23)cc(C)c1Cl [Example 126, 3-((3-(3-(4-chloro-3,5-dimethylphenoxy)propyl)-2-methyl-7-(1,3,5-trimethyl-1H-pyrazol-4-yl)-1H-indol-1-yl)methyl)-N-(pyridin-2-ylsulfonyl)benzamide]
≤ 0.1 µM	Cc1cc(OCCCc2c(C)n(Cc3cccc(C(=O)NS(=O)(=O)c4ccccc4)c3)c3c(-c4c(C)nn(C)c4C)cccc23)cc(C)c1Cl [Example 127, 3-((3-(3-(4-chloro-3,5-dimethylphenoxy)propyl)-2-methyl-7-(1,3,5-trimethyl-1H-pyrazol-4-yl)-1H-indol-1-yl)methyl)-N-(phenylsulfonyl)benzamide]
0.101 to 0.299 µM	Cc1cc(OCCCc2c(C)n(Cc3cccc(C(=O)NS(=O)(=O)c4ccncc4)c3)c3c(-c4c(C)nn(C)c4C)cccc23)cc(C)c1Cl [Example 128, 3-((3-(3-(4-chloro-3,5-dimethylphenoxy)propyl)-2-methyl-7-(1,3,5-trimethyl-1H-pyrazol-4-yl)-1H-indol-1-yl)methyl)-N-(pyridin-4-ylsulfonyl)benzamide]
0.101 to 0.299 µM	Cc1cc(OCCCc2c(C)n(Cc3cccc(C(=O)NS(=O)(=O)c4cccnc4)c3)c3c(-c4c(C)nn(C)c4C)cccc23)cc(C)c1Cl [Example 129, 3-((3-(3-(4-chloro-3,5-dimethylphenoxy)propyl)-2-methyl-7-(1,3,5-trimethyl-1H-pyrazol-4-yl)-1H-indol-1-yl)methyl)-N-(pyridin-3-ylsulfonyl)benzamide]
≤ 0.1 µM	Cc1cc(OCCCc2c(C)n(Cc3ccc(C(=O)NS(=O)(=O)c4ccccc4)cc3)c3c(-c4c(C)nn(C)c4C)cccc23)cc(C)c1Cl [Example 130, 4-((3-(3-(4-chloro-3,5-dimethylphenoxy)propyl)-2-methyl-7-(1,3,5-trimethyl-1H-pyrazol-4-yl)-1H-indol-1-yl)methyl)-N-(phenylsulfonyl)benzamide]
≤ 0.1 µM	Cc1cc(OCCCc2c(C)n(Cc3ccc(C(=O)NS(C)(=O)=O)cc3)c3c(-c4c(C)nn(C)c4C)cccc23)cc(C)c1Cl [Example 131, 4-((3-(3-(4-chloro-3,5-dimethylphenoxy)propyl)-2-methyl-7-(1,3,5-trimethyl-1H-pyrazol-4-yl)-1H-indol-1-yl)methyl)-N-(methylsulfonyl)benzamide]
≤ 0.1 µM	Cc1cc(OCCCc2c(C)n(Cc3ccc(C(=O)NS(=O)(=O)c4ccccn4)cc3)c3c(-c4c(C)nn(C)c4C)cccc23)cc(C)c1Cl [Example 132, 4-((3-(3-(4-chloro-3,5-dimethylphenoxy)propyl)-2-methyl-7-(1,3,5-trimethyl-1H-pyrazol-4-yl)-1H-indol-1-yl)methyl)-N-(pyridin-2-ylsulfonyl)benzamide]
≤ 0.1 µM	Cc1cc(OCCCc2c(C)n(CCC(=O)O)c3c(-c4c(C)nn(Cc5cccnc5)c4C)cccc23)cc(C)c1Cl [Example 133, 3-(3-(3-(4-chloro-3,5-dimethylphenoxy)propyl)-7-(3,5-dimethyl-1-(pyridin-3-ylmethyl)-1H-pyrazol-4-yl)-2-methyl-1H-indol-1-yl)propanoic acid]
≤ 0.1 µM	Cc1cc(OCCCc2c(C)n(Cc3ccc(C(=O)O)cn3)c3c(-c4c(C)nn(C)c4C)c(Cl)ccc23)cc(C)c1Cl [Example 134, 6-((6-chloro-3-(3-(4-chloro-3,5-dimethylphenoxy)propyl)-2-methyl-7-(1,3,5-trimethyl-1H-pyrazol-4-yl)-1H-indol-1-yl)methyl)nicotinic acid]

Second part, the molecule before the results:

SMILES	Ki
Cc1cc(OCCCc2c(C)n(CCC(=O)O)c3c(-c4c(C)nn(Cc5ccccn5)c4C)cccc23)cc(C)c1Cl [Example 105, 3-(3-(3-(4-chloro-3,5-dimethylphenoxy)propyl)-7-(3,5-dimethyl-1-(pyridin-2-ylmethyl)-1H-pyrazol-4-yl)-2-methyl-1H-indol-1-yl)propanoic acid]	≤ 0.1 µM
Cc1cc(OCCCc2c(C)n(CCC(=O)O)c3c(-c4c(C)nn(CC5CCOC5)c4C)cccc23)cc(C)c1Cl (stereo not drawn) [Example 106, 3-(3-(3-(4-chloro-3,5-dimethylphenoxy)propyl)-7-(3,5-dimethyl-1-((tetrahydrofuran-3-yl)methyl)-1H-pyrazol-4-yl)-2-methyl-1H-indol-1-yl)propanoic acid]	≤ 0.1 µM
Cc1cc(OCCCc2c(C)n(CCC(=O)O)c3c(-c4c(C)nn(CCN(C)C)c4C)cccc23)cc(C)c1Cl [Example 109, 3-(3-(3-(4-chloro-3,5-dimethylphenoxy)propyl)-7-(1-(2-(dimethylamino)ethyl)-3,5-dimethyl-1H-pyrazol-4-yl)-2-methyl-1H-indol-1-yl)propanoic acid]	0.301 to 0.5 µM
Cc1cc(OCCCc2c(C)n(CCC(=O)O)c3c(-c4c(C)nn(Cc5ncccn5)c4C)cccc23)cc(C)c1Cl [Example 110, 3-(3-(3-(4-chloro-3,5-dimethylphenoxy)propyl)-7-(3,5-dimethyl-1-(pyrimidin-2-ylmethyl)-1H-pyrazol-4-yl)-2-methyl-1H-indol-1-yl)propanoic acid]	1 to 9.99 µM
Cc1cc(OCCCc2c(C)n(Cc3cccc(C(=O)O)c3)c3c(-c4c(C)nn(Cc5ccccn5)c4C)cccc23)cc(C)c1Cl [Example 111, 3-((3-(3-(4-chloro-3,5-dimethylphenoxy)propyl)-7-(3,5-dimethyl-1-(pyridin-2-ylmethyl)-1H-pyrazol-4-yl)-2-methyl-1H-indol-1-yl)methyl)benzoic acid]	≤ 0.1 µM
Cc1cc(OCCCc2c(C)n(Cc3cccc(C(=O)O)c3)c3c(-c4c(C)nn(Cc5cccnc5)c4C)cccc23)cc(C)c1Cl [Example 112, 3-((3-(3-(4-chloro-3,5-dimethylphenoxy)propyl)-7-(3,5-dimethyl-1-(pyridin-3-ylmethyl)-1H-pyrazol-4-yl)-2-methyl-1H-indol-1-yl)methyl)benzoic acid]	0.501 to 0.999 µM
Cc1cc(OCCCc2c(C)n(CCC(=O)O)c3c(-c4c(C)nn(CCN5CCOCC5)c4C)c(Cl)ccc23)cc(C)c1Cl [Example 113, 3-(6-chloro-3-(3-(4-chloro-3,5-dimethylphenoxy)propyl)-7-(3,5-dimethyl-1-(2-morpholinoethyl)-1H-pyrazol-4-yl)-2-methyl-1H-indol-1-yl)propanoic acid]	≤ 0.1 µM
Cc1cc(OCCCc2c(C)n(CC(=O)O)c3c(-c4c(C)nn(C)c4C)c(Cl)ccc23)cc(C)c1Cl [Example 114, 2-(6-chloro-3-(3-(4-chloro-3,5-dimethylphenoxy)propyl)-2-methyl-7-(1,3,5-trimethyl-1H-pyrazol-4-yl)-1H-indol-1-yl)acetic acid]	≤ 0.1 µM
Cc1cc(OCCCc2c(C(F)(F)F)n(Cc3cccc(C(=O)O)c3)c3c(Br)cccc23)cc(C)c1Cl [Example 115, 3-((7-bromo-3-(3-(4-chloro-3,5-dimethylphenoxy)propyl)-2-(trifluoromethyl)-1H-indol-1-yl)methyl)benzoic acid]	0.101 to 0.299 µM
Cc1cc(OCCCc2c(C(F)(F)F)n(Cc3ccc(C(=O)O)cc3)c3c(Br)cccc23)cc(C)c1Cl [Example 116, 4-((7-bromo-3-(3-(4-chloro-3,5-dimethylphenoxy)propyl)-2-(trifluoromethyl)-1H-indol-1-yl)methyl)benzoic acid]	0.101 to 0.299 µM
Cc1cc(OCCCc2c(C(F)(F)F)n(CCc3ccc(C(=O)O)cc3)c3c(-c4c(C)nn(C)c4C)cccc23)cc(C)c1Cl [Example 118, 4-(2-(3-(3-(4-chloro-3,5-dimethylphenoxy)propyl)-2-(trifluoromethyl)-7-(1,3,5-trimethyl-1H-pyrazol-4-yl)-1H-indol-1-yl)ethyl)benzoic acid]	≤ 0.1 µM
Cc1cc(OCCCc2c(C(F)(F)F)n(Cc3ccc(C(=O)O)cn3)c3c(Br)cccc23)cc(C)c1Cl [Example 119, 6-((7-bromo-3-(3-(4-chloro-3,5-dimethylphenoxy)propyl)-2-(trifluoromethyl)-1H-indol-1-yl)methyl)nicotinic acid]	1 to 9.99 µM
Cc1cc(OCCCc2c(C(F)(F)F)n(CC(=O)O)c3c(-c4c(C)nn(C)c4C)cccc23)cc(C)c1Cl [Example 120, 2-(3-(3-(4-chloro-3,5-dimethylphenoxy)propyl)-2-(trifluoromethyl)-7-(1,3,5-trimethyl-1H-pyrazol-4-yl)-1H-indol-1-yl)acetic acid]	≤ 0.1 µM
Cc1cc(OCCCc2c(C(F)(F)F)n(CC(=O)N3CCN(CC(=O)O)CC3)c3c(-c4c(C)nn(C)c4C)cccc23)cc(C)c1Cl [Example 121, 2-(4-(2-(3-(3-(4-chloro-3,5-dimethylphenoxy)propyl)-2-(trifluoromethyl)-7-(1,3,5-trimethyl-1H-pyrazol-4-yl)-1H-indol-1-yl)acetyl)piperazin-1-yl)acetic acid]	≤ 0.1 µM
Cc1cc(OCCCc2c(C(F)(F)F)n(Cc3cccc(C(=O)O)c3)c3c(-c4c(C)nn(C)c4C)c(Cl)ccc23)cc(C)c1Cl [Example 122, 3-((6-chloro-3-(3-(4-chloro-3,5-dimethylphenoxy)propyl)-2-(trifluoromethyl)-7-(1,3,5-trimethyl-1H-pyrazol-4-yl)-1H-indol-1-yl)methyl)benzoic acid]	≤ 0.1 µM
Cc1cc(OCCCc2c(C(F)(F)F)n(Cc3cccc(C(=O)O)c3)c3c(-c4c(C)nn(C)c4C)cccc23)cc(C)c1Cl [Example 123, 3-((3-(3-(4-chloro-3,5-dimethylphenoxy)propyl)-2-(trifluoromethyl)-7-(1,3,5-trimethyl-1H-pyrazol-4-yl)-1H-indol-1-yl)methyl)benzoic acid]	≤ 0.1 µM
Cc1cc(OCCCc2c(C(F)(F)F)n(Cc3ccc(C(=O)O)cc3)c3c(-c4c(C)nn(C)c4C)cccc23)cc(C)c1Cl [Example 124, 4-((3-(3-(4-chloro-3,5-dimethylphenoxy)propyl)-2-(trifluoromethyl)-7-(1,3,5-trimethyl-1H-pyrazol-4-yl)-1H-indol-1-yl)methyl)benzoic acid]	≤ 0.1 µM
Cc1cc(OCCCc2c(C)n(Cc3cccc(C(=O)NS(C)(=O)=O)c3)c3c(-c4c(C)nn(C)c4C)cccc23)cc(C)c1Cl [Example 125, 3-((3-(3-(4-chloro-3,5-dimethylphenoxy)propyl)-2-methyl-7-(1,3,5-trimethyl-1H-pyrazol-4-yl)-1H-indol-1-yl)methyl)-N-(methylsulfonyl)benzamide]	≤ 0.1 µM

From patent US10954193B2 (Vanderbilt University, priority 2013, dated 2021)
